Data reported in patent US10925858B2, “S-nitrosoglutathione (GSNO) and GSNO reductase inhibitors for use in therapy” (MUSC FOUNDATION FOR RESEARCH DEVELOPMENT, priority 2017, dated 2021).

How the values were obtained:
EAE mice = assay: EAE (MOG35-55) clinical disease, GSNO vs FeTPPS; type: in vivo, C57BL/6J mice; details: GSNO 1 mg/kg/i.p./day or FeTPPS 30 mg/kg/i.p./day from disease onset (day 13)
Protocol: (§1) EAE was induced as described previously (Nath et al., 2009). Animal procedures were approved by the institutional animal care and use committee of MUSC (AR #1644). Briefly, female C57BL/6J mice of 8-12 weeks of age weighing 18-22 g (The Jackson Laboratory, Bar Harbor, Me., USA) were randomly divided into four groups: 1) EAE animals treated with vehicle (EAE; n=8), 2) EAE with GSNO (1 mg/kg body weight per day; i.p.) treatment (EAE+GSNO; n=12), 3) EAE with FeTPPS (30 mg/kg body weight per day; i.p.) treatment (EAE+FeTPPS; n=8), 4) control with vehicle (Ctrl; n=8). The group size was determined by power analysis based on our previous data (Nadi et al., 2009). Then, the mice were immunized subcutaneously in the flank regions with MOG35-55 peptide (MOG; 200 ug; Peptide International) emulsified (1:1) in 100 ul complete Freund's adjuvant (CFA) CHI day 0 and day 7. […] Clinical signs of EAE were scored in animal facility in a blinded fashion to experimenter between 2 and 4 pm daily by examiners blinded to experimental treatments using the following scale: 0=no clinical signs of disease; 1=limp tail or waddling gait with tail tonicity; 2=waddling gait with limp tail (ataxia); 2.5=ataxia with partial limb paralysis; 3=full paralysis of one limb; 3.5=full paralysis of one limb with partial paralysis of second limb; 4=full paralysis of two limbs; 4.5=moribund stage; 5=death. […]

mononuclear cells = assay: H&E staining, peripheral mononuclear cell infiltration in EAE mice; type: in vivo, C57BL/6J mice; details: GSNO 1 mg/kg/day or FeTPPS 30 mg/kg/day i.p.
Protocol: as §1

[1] = test system: protein associated S-nitrosothiols; assay: Biotin-switch analysis of protein associated S-nitrosothiols in spleens of EAE mice; type: in vivo, C57BL/6 mice; details: vs control and EAE mice
Protocol: Female C57BL/6 mice of 8-12 weeks of age, purchased from Jackson Laboratory, were provided with food and water ad libitum and were kept in pathogen free animal care facility of Medical University of South Carolina (MUSC) throughout the study. All procedures were conducted in accordance with accepted standards of humane care as approved by the Institutional Animal Care and Use Committee (Approved number: AR #1644). EAE was induced as described previously (Nath et al., 2009). Briefly, mice were immunized subcutaneously in the flank regions with MOG35-55 peptide (MOG; 200 μg; Peptide International) emulsified (1:1) in 100 ul complete Freund's adjuvant (CFA) on day 0 and day 7. Additionally, 300 ng of Pertussis toxin (Sigma-Aldrich, St. Louis, Mo.) was given on day 0 and day 2 by i.p. injection. […] Clinical signs of EAE were scored by examiners blinded to experimental treatments using the following scale: 0=no clinical signs of disease; 1=piloerection and sluggish; 2=limp tail (ataxia); 2.5=ataxia with partial hind limb paralysis; 3=full paralysis of hind limb; 3.5=full paralysis of hind limb with paralysis of one fore limb; 4=full paralysis of two limbs; 4.5=moribund stage; 5=death. […]
Protein S-Nitrosylation was detected using the biotin-switch method with slight modification as described in our previous study (Kim et al., 2014). […]

SMILES | efficacy against clinical disease of EAE (EAE mice) | extravasation of peripheral mononuclear cells into the CNS (mononuclear cells) | spleen levels of protein-associated S-nitrosothiols [1]
Cl.O=S(=O)([O-])c1ccc(-c2c3nc(c(-c4ccc(S(=O)(=O)O)cc4)c4ccc([nH]4)c(-c4ccc(S(=O)(=O)O)cc4)c4nc(c(-c5ccc(S(=O)(=O)O)cc5)c5ccc2[nH]5)C=C4)C=C3)cc1.[Fe] [FeTPPS, 5,10,15,20-Tetrakis(4-sulfonatophenyl)porphyrinato Iron (III), Cl, reference compound] | significant efficacy but to a lower degree than GSNO treatment | significantly decreased | –
Cc1cc(C(N)=O)ccc1-n1c(CCC(=O)O)ccc1-c1ccc(-n2ccnc2)cc1 [N6022, reference compound] | – | – | increased
N[C@@H](CCC(=O)N[C@@H](CSN=O)C(=O)NCC(=O)O)C(=O)O [GSNO, S-nitrosoglutathione] | great efficacy | significantly decreased | increased
